Target: T1, FAP (Homo sapiens, UniProt Q12884)
T1 construct: Target cells: WI-38 cells (typically 1000-20,000 cells per well); endogenous in cells; host or cells: WI-38 cells
T1 sequence (Q12884 1-760): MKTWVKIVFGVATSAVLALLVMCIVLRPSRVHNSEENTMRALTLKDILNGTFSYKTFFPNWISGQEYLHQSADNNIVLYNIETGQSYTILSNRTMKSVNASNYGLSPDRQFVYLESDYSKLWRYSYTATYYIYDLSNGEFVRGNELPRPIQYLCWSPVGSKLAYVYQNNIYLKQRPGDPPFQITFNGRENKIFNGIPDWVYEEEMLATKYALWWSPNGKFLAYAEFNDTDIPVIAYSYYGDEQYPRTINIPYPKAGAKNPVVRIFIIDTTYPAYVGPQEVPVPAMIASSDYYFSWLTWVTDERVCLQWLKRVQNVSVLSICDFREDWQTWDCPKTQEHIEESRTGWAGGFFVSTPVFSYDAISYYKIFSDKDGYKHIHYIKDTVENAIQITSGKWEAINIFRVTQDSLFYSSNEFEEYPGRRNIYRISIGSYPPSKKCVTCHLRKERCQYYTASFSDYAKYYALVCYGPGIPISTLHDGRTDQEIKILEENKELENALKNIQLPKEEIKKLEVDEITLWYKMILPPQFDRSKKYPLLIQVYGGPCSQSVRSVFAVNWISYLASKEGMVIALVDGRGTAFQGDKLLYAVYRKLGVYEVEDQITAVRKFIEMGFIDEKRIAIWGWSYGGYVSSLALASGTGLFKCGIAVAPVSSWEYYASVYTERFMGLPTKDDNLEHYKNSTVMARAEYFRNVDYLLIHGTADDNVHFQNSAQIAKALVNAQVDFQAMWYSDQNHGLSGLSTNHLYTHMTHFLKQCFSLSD
Experiment: Antibody dependent cellular cytotoxicity (ADCC) reporter assay
Format: cell-based
Design: key to ADCC Reporter Assay pEC50: Inactive = pEC50 < 5
Conditions: WI-38 target cells; Jurkat FcγRIIIa NFAT-luciferase reporter cells; with anti-cotinine antibody (SEQ ID NO: 11/12); 12-18 hours; average if more than one run
Description: An antibody dependent cellular cytotoxicity (ADCC) reporter assay was conducted using the following four assay components: (i) ARM compound of Formula (I) targeting FAP (concentrations ranging from […]); (ii) anti-cotinine antibody having a heavy chain sequence of SEQ ID NO: 11 and a light chain sequence of SEQ ID NO: 12 (rabbit variable region with human IgG1 Fc domain containing DE mutation (S239D/I332E)) (concentrations ranging from 0.01 μg/mL 200 μg/mL); (iii) Target cells: WI-38 cells (typically 1000-20,000 cells per well); and (iv) Reporter cells—Jurkat cells engineered to express FcγRIIIa with a reporter gene luciferase under the control of the NFAT promoter (typically 3000-75,000 cells per well). Reagents were combined in final volume of 20 μL in 384—well tissue culture treated plate. All four assay components were incubated together for about 12-18 hours. Thereafter, BioGlo Detection reagent (Promega) was added to the wells to lyse the cells and provide a substrate for the luciferase reporter protein.
Luminescence signal was measured on a microplate reader capable of measuring luminescence and signal:background was calculated by dividing the signal of a test well by the signal obtained when no compound of formula (I) was included in the assay. EC50 calculations were done using Graphpad Prism Software, specifically a nonlinear regression curve fit (Y=Bottom+(Top−Bottom)/(1+10^((Log EC50−X)*HillSlope))).
ARMs compounds of Formula (I) were tested for ADCC activity in the above assay in one or more experimental runs and the results are shown in Table 3 below. Potency of the compounds of Formula (I) is reported as a pEC50 values. The pEC50 value is the negative log of the EC50 value, wherein the EC50 value is half maximal effective concentration measured in molar (M). For compounds tested in more than one experimental run, the pEC50 value is reported as an average.

Row | SMILES | ADCC Reporter Assay pEC50
1 | CN(CCNC(=O)[C@H]1CC[C@H](NC(=O)[C@H]2CC[C@H](NC(=O)CCCO[C@H]3CC[C@H](OCCNC(=O)[C@H]4CC(=O)N(C)[C@@H]4c4cccnc4)CC3)CC2)CC1)c1ccc2nccc(C(=O)NCC(=O)N3CC(F)(F)C[C@H]3C#N)c2c1 [Example 2, N-(2-((S)-2-cyano-4,4-difluoropyrrolidin-1-yl)-2-oxoethyl)-6-(methyl(2-((1R,4r)-((1R,4R)-4-(4-(((1S,4R)-4-(2-((2S,3S)-1-methyl-5-oxo-2-(pyridin-3-yl)pyrrolidine-3-carboxamido)ethoxy)cyclohexyl)oxy)butanamido)cyclohexane-1-carboxamido)cyclohexane-1-carboxamido)ethyl)amino)quinoline-4-carboxamide] | Inactive^1
2 | CN(CCNC(=O)CCCO[C@H]1CC[C@H](OCCNC(=O)[C@H]2CC[C@H](NC(=O)CCCO[C@H]3CC[C@H](OCCNC(=O)[C@H]4CC(=O)N(C)[C@@H]4c4cccnc4)CC3)CC2)CC1)c1ccc2nccc(C(=O)NCC(=O)N3CC(F)(F)C[C@H]3C#N)c2c1 [Example 3, N-(2-((S)-2-cyano-4,4-difluoropyrrolidin-1-yl)-2-oxoethyl)-6-(methyl(2-(4-(((1R,4r)-4-(2-((1R,4R)-4-(4-(((1S,4R)-4-(2-((2S,3S)-1-methyl-5-oxo-2-(pyridin-3-yl)pyrrolidine-3-carboxamido)ethoxy)cyclohexyl)oxy)butanamido)cyclohexane-1-carboxamido)ethoxy)cyclohexyl)oxy)butanamido)ethyl)amino)quinoline-4-carboxamide] | Inactive
3 | CN(CCNC(=O)[C@H]1CC[C@H](NC(=O)CCCO[C@H]2CC[C@H](OCCNC(=O)[C@H]3CC(=O)N(C)[C@@H]3c3cccnc3)CC2)CC1)c1ccc2nccc(C(=O)NCC(=O)N3CC(F)(F)C[C@H]3C#N)c2c1 [Example 4, N-(2-((S)-2-cyano-4,4-difluoropyrrolidin-1-yl)-2-oxoethyl)-6-(methyl(2-((1R,4r)-4-(4-(((1S,4R)-4-(2-((2S,3S)-1-methyl-5-oxo-2-(pyridin-3-yl)pyrrolidine-3-carboxamido)ethoxy)cyclohexyl)oxy)butanamido)cyclohexane-1-carboxamido)ethyl)amino)quinoline-4-carboxamide] | Inactive
4 | CN(CCNC(=O)CCOCCOCCOCCOCCOCCOCCOCCOCCOCCOCCOCCOCCNC(=O)[C@H]1CC(=O)N(C)[C@@H]1c1cccnc1)c1ccc2nccc(C(=O)NCC(=O)N3CC(F)(F)C[C@H]3C#N)c2c1 [Example 5, N-(2-((S)-2-cyano-4,4-difluoropyrrolidin-1-yl)-2-oxoethyl)-6-(methyl(1-((2S,3S)-1-methyl-5-oxo-2-(pyridin-3-yl)pyrrolidin-3-yl)-1,41-dioxo-5,8,11,14,17,20,23,26,29,32,35,38-dodecaoxa-2,42-diazatetratetracontan-44-yl)amino)quinoline-4-carboxamide] | Inactive

Same assay, conditions: WI-38 target cells; Jurkat FcγRIIIa NFAT-luciferase reporter cells; with anti-cotinine antibody (SEQ ID NO: 11/12); 12-18 hours; average if more than one run; read-out: ADCC Reporter Assay pEC50 (converted)

Row | SMILES | EC50 [nM]
5 | CN(CCNC(=O)[C@H]1CC[C@H](NC(=O)CCCO[C@H]2CC[C@H](OCCNC(=O)[C@H]3CC[C@H](NC(=O)CCCO[C@H]4CC[C@H](OCCNC(=O)[C@H]5CC(=O)N(C)[C@@H]5c5cccnc5)CC4)CC3)CC2)CC1)c1ccc2nccc(C(=O)NCC(=O)N3CC(F)(F)C[C@@H]3C#N)c2c1 (racemic) [Example 1, N-(2-((S)-2-Cyano-4,4-difluoropyrrolidin-1-yl)-2-oxoethyl)-6-(methyl(2-((1R,4R)-4-(4-(((1R,4R)-4-(2-((1R,4R)-4-(4-(((1 S,4R)-4-(2-((2S,3S)-1-methyl-5-oxo-2-(pyridin-3-yl)pyrrolidine-3-carboxamido)ethoxy)cyclohexyl)oxy)butanamido)cyclohexane-1-carboxamido)ethoxy)cyclohexyl)oxy)butanamido)cyclohexane-1-carboxamido)ethyl)amino) quinoline-4-carboxamide] | 3.98
6 | CN(CCNC(=O)CCOCCOCCOCCOCCOCCOCCOCCOCCOCCOCCOCCOCCOCCOCCOCCOCCOCCOCCOCCOCCNC(=O)[C@H]1CC(=O)N(C)[C@@H]1c1cccnc1)c1ccc2nccc(C(=O)NCC(=O)N3CC(F)(F)C[C@H]3C#N)c2c1 [Example 6, N-(2-((S)-2-cyano-4,4-difluoropyrrolidin-1-yl)-2-oxoethyl)-6-(methyl(1-((2S,3S)-1-methyl-5-oxo-2-(pyridin-3-yl)pyrrolidin-3-yl)-1,65-dioxo-5,8,11,14,17,20,23,26,29,32,35,38,41,44,47,50,53,56,59,62-icosaoxa-2,66-diazaoctahexacontan-68-yl)amino)quinoline-4-carboxamide] | 12.6
7 | CN(CCNC(=O)CCOCCOCCOCCOCCOCCOCCOCCOCCOCCOCCOCCOCCOCCOCCOCCOCCOCCOCCOCCOCCOCCOCCOCCOCCNC(=O)[C@H]1CC(=O)N(C)[C@@H]1c1cccnc1)c1ccc2nccc(C(=O)NCC(=O)N3CC(F)(F)C[C@H]3C#N)c2c1 [Example 7, N-(2-((S)-2-Cyano-4,4-difluoropyrrolidin-1-yl)-2-oxoethyl)-6-(methyl(1-((2S,3S)-1-methyl-5-oxo-2-(pyridin-3-yl)pyrrolidin-3-yl)-1,77-dioxo-5,8,11,14,17,20,23,26,29,32,35,38,41,44,47,50,53,56,59,62,65,68,71,74-tetracosaoxa-2,78-diazaoctacontan-80-yl)amino)quinoline-4-carboxamide] | 5.01
8 | CN1C(=O)C[C@H](C(=O)NCCOCCOCCOCCOCCOCCOCCOCCOCCOCCOCCOCCOCCOCCOCCOCCNC(=O)COc2ccc3nccc(C(=O)NCC(=O)N4CCC[C@@H]4C#N)c3c2)[C@H]1c1cccnc1 [Example 8, N-(2-((R)-2-cyanopyrrolidin-1-yl)-2-oxoethyl)-6-((1-((2S,3S)-1-methyl-5-oxo-2-(pyridin-3-yl)pyrrolidin-3-yl)-1,51-dioxo-5,8,11,14,17,20,23,26,29,32,35,38,41,44,47-pentadecaoxa-2,50-diazadopentacontan-52-yl)oxy)quinoline-4-carboxamide] | 3.98
9 | CN1C(=O)C[C@H](C(=O)NCCOCCOCCOCCOCCOCCOCCOCCOCCOCCOCCOCCOCCOCCOCCOCCOc2ccc3c(C(=O)NCC(=O)N4CCC[C@H]4C#N)ccnc3c2)[C@H]1c1cccnc1 [Example 9, N-(2-((S)-2-cyanopyrrolidin-1-yl)-2-oxoethyl)-7-((1-((2S,3S)-1-methyl-5-oxo-2-(pyridin-3-yl)pyrrolidin-3-yl)-1-oxo-5,8,11,14,17,20,23,26,29,32,35,38,41,44,47-pentadecaoxa-2-azanonatetracontan-49-yl)oxy)quinoline-4-carboxamide] | > 1000
10 | CN1C(=O)C[C@H](C(=O)NCCOCCOCCOCCOCCOCCOCCOCCOCCOCCOCCOCCOCCOCCOCCOCCNC(=O)COc2ccc3c(C(=O)NCC(=O)N4CCC[C@H]4C#N)ccnc3c2)[C@H]1c1cccnc1 [Example 10, N-(2-((S)-2-cyanopyrrolidin-1-yl)-2-oxoethyl)-7-((1-((2S,3S)-1-methyl-5-oxo-2-(pyridin-3-yl)pyrrolidin-3-yl)-1,51-dioxo-5,8,11,14,17,20,23,26,29,32,35,38,41,44,47-pentadecaoxa-2,50-diazadopentacontan-52-yl)oxy)quinoline-4-carboxamide] | > 1000

Reference: patent US20250064947A1, “CYTOTOXICITY TARGETING CHIMERAS FOR FIBROBLAST ACTIVATION PROTEIN-EXPRESSING CELLS” (Glaxosmithkline Intellectual Property Development Limited, priority 2022, published 2025)
